Results: patent US11111245B2, “Derivatives of N-cycloalkyl/heterocycloalkyl-4-(imidazo[1,2-a]pyridine)pyrimidin-2-amine as therapeutic agents” (Aucentra Therapeutics Pty Ltd, priority 2017, dated 2021)

How the values were obtained:
[1] = target: CDK9/T1 (Homo sapiens, UniProt P50750); experiment: ADP Glo Kinase assay CDK9/T1; format: biochemical; details: CDK9T1; read-out: CDK inhibition, Ki (μM) CDK9T1
In short: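 ADP Glo luminescence, in-house: CDK4/D1, CDK6/D3 on RB-CTF substrate (Tris pH 7.5, MgCl2, DTT, BSA); CDK9/T1 on RBER-IRStide. Reaction 40 min, 37° C after ATP addition. 10-point 1:3 series, 10 μM to 0.5 nM. IC50 by 4-parameter logistic; Ki derived using ATP Km.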

[2] = target: T1, CDKs and other kinases (Homo sapiens, UniProt P50613); experiment: Radiometric kinase assay (Eurofins Pharma Discovery or Reaction Biology Corporation Kinase Profiler); format: biochemical; details: CDK7H; for Ki: read-out: CDK inhibition, Ki (μM) CDK7H; for remaining activity at 10 µM: compound at 10 μM, read-out: residual activity (%) at 10 μM CDK7H
T1 construct: other: CDK7H; residual activity (%) at 10 μM CDK7H; compound at 10 μM
In short: (§1)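 Other CDKs and further kinases were profiled externally by radiometric assay. In-house ADP Glo assays covered CDK4/D1 and CDK6/D3 (RB-CTF substrate, pH 7.5 Tris buffer with MgCl2, DTT, BSA) and CDK9/T1 (RBER-IRStide substrate), 40 min at 37° C.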

[3] = target: T2, CDKs and other kinases (Homo sapiens, UniProt P24941); experiment: as above; format: biochemical; details: CDK2A; for Ki: read-out: CDK inhibition, Ki (μM) CDK2A; for remaining activity at 10 µM: compound at 10 μM, read-out: residual activity (%) at 10 μM CDK2A
T2 construct: other: CDK2A; residual activity (%) at 10 μM CDK2A; compound at 10 μM
In short: as §1

[4] = target: T3, CDKs and other kinases (Homo sapiens, UniProt P06493); experiment: as above; format: biochemical; details: CDK1B; for Ki: read-out: CDK inhibition, Ki (μM) CDK1B; for remaining activity at 10 µM: compound at 10 μM, read-out: residual activity (%) at 10 μM CDK1B
T3 construct: other: CDK1B; residual activity (%) at 10 μM CDK1B; compound at 10 μM
In short: as §1

[5] = tested on: leukemia cell lines; experiment: Resazurin cell viability assay on leukemia cell lines (72 h growth inhibition, GI50); format: cell-based; details: Homo sapiens, MV4-11 cells
In short: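 GI50 values from non-linear regression of growth inhibition; read-out was MTT for solid tumour cells, resazurin for leukaemia cells.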

[6] = target: CDK4/D1 (Homo sapiens, UniProt P11802); experiment: ADP Glo Kinase assay CDK4/D1; format: biochemical; details: CDK4D1; for remaining activity at 10 µM: compound at 10 μM, read-out: residual activity (%) at 10 μM CDK4D1; for Ki: read-out: CDK inhibition, Ki (μM) CDK4D1
In short: (§2)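 Compounds tested at 10 concentrations (10 μM to 0.5 nM, 1:3 steps) against CDK4/D1 or CDK6/D3, RB-CTF substrate, Tris pH 7.5 buffer with MgCl2, DTT and BSA.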

[7] = target: CDK6/D3 (Homo sapiens, UniProt Q00534); experiment: ADP Glo Kinase assay CDK6/D3; format: biochemical; details: CDK6D3; for remaining activity at 10 µM: compound at 10 μM, read-out: residual activity (%) at 10 μM CDK6D3; for Ki: read-out: CDK inhibition, Ki (μM) CDK6D3
In short: as §2

CDK4/D1, sequence (P11802 whole entry): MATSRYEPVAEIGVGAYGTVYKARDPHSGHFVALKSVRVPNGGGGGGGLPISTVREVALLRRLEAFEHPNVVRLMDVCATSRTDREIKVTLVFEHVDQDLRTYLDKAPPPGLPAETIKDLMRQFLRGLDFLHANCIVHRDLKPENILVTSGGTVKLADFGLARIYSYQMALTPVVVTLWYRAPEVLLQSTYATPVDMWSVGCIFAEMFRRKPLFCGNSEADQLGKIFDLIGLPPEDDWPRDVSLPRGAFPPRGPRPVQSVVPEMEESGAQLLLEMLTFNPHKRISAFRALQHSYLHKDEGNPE
CDK4/D1, sequence (P24385 whole entry partner): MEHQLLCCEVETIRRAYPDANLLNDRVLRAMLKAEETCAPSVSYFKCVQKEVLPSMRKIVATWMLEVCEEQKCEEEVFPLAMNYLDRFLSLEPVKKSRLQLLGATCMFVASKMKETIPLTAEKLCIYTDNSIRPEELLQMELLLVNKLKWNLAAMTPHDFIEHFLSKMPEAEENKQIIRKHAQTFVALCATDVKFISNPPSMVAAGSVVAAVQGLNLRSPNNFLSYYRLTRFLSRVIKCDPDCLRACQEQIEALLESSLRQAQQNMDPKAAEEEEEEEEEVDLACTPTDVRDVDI
CDK9/T1, sequence (P50750 whole entry): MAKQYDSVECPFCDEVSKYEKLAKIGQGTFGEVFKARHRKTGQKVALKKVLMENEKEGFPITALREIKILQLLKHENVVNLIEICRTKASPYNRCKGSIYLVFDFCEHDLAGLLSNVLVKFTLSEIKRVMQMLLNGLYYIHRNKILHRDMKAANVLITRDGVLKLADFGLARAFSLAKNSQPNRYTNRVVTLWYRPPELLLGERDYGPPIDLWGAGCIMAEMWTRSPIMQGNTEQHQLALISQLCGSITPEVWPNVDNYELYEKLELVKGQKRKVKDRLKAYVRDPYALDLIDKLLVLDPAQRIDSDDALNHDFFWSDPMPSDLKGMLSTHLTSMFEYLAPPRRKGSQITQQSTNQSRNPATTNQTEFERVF
CDK9/T1, sequence (O60563 whole entry partner): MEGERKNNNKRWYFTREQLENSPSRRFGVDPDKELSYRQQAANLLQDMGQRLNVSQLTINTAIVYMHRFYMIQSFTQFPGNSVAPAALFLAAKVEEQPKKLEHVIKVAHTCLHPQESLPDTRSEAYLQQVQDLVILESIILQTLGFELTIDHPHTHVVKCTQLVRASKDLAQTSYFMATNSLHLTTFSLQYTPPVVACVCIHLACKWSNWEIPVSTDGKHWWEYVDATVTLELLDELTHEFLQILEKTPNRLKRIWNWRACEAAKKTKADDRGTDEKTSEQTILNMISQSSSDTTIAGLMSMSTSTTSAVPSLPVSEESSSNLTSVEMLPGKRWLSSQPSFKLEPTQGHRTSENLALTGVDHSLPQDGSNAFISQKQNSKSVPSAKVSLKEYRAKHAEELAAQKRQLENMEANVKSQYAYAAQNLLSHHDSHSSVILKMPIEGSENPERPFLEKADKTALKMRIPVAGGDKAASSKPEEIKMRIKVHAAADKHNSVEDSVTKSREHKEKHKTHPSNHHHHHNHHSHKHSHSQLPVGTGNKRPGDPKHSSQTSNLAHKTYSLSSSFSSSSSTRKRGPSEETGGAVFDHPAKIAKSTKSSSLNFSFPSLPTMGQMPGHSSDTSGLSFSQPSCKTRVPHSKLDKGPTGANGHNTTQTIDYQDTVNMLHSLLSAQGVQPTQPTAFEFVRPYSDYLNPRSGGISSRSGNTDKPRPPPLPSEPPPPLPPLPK
T1 sequence (P50613 whole entry): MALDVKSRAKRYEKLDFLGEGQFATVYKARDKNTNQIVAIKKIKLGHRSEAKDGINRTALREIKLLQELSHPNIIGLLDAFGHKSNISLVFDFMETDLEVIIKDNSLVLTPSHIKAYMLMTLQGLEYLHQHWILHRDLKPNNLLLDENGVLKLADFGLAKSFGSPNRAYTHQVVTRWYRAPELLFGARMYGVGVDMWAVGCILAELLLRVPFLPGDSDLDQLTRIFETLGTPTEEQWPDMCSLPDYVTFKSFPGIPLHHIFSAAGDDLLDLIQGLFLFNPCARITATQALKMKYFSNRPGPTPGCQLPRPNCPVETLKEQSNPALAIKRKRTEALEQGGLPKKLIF
T3 sequence (P06493 whole entry): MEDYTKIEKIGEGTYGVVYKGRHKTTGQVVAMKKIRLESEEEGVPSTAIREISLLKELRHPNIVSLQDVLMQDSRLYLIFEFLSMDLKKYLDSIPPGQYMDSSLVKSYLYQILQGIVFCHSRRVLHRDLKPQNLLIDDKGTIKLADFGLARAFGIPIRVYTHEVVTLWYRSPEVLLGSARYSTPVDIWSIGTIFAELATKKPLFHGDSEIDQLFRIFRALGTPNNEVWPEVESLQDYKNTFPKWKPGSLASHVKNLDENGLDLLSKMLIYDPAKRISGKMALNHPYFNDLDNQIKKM
CDK6/D3, sequence (Q00534 whole entry): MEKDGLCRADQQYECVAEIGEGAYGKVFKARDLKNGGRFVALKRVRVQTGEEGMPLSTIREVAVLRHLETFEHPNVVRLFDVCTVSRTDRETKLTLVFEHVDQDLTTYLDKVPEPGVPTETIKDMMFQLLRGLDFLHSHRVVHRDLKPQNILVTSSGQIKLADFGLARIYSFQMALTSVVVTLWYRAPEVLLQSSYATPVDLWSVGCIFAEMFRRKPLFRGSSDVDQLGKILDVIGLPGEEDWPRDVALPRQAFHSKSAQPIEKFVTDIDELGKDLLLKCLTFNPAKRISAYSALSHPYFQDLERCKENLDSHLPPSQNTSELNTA
CDK6/D3, sequence (P30281 whole entry partner): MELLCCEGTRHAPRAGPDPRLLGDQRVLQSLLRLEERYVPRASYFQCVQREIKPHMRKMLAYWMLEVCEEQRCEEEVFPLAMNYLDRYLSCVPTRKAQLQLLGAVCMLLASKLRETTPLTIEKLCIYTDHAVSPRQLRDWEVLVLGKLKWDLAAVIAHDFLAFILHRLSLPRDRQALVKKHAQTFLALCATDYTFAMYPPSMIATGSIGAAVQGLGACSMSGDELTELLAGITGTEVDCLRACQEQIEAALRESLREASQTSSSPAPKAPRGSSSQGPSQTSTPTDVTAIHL

## N[C@H]1CC[C@H](Nc2ncc(Cl)c(-c3cnc4c(-c5ccccc5)cc(C(F)(F)F)cn34)n2)CC1 [Compound 85, (1r,4r)-N^1-(5-Chloro-4-(8-phenyl-6-(trifluoromethyl)imidazo[1,2-a]pyridin-3-yl)pyrimidin-2-yl)cyclohexane-1,4-diamine]
[1]
  Ki: 0.13 µM
[2]
  Ki: 0.048 µM
[3]
  Ki: 0.77 µM
[4]
  Ki: 7.44 µM
[5]
  GI50: 1.32 ± 0.549 µM
[6]
  remaining activity at 10 µM: 75%
[7]
  remaining activity at 10 µM: 43%

## COC(=O)CN1CCC(Nc2ncc(F)c(-c3cnc4ccccn34)n2)CC1 [Compound 23, Methyl 2-(4-((5-fluoro-4-(imidazo[1,2-a]pyridin-3-yl)pyrimidin-2-yl)amino)piperidin-1-yl)acetate]
[1]
  Ki: 0.063 µM
[2]
  Ki: 0.885 µM
[3]
  Ki: 0.155 µM
[4]
  Ki: 0.258 µM
[5]
  GI50: 0.28 ± 0.049 µM
[6]
  remaining activity at 10 µM: 0%
[7]
  remaining activity at 10 µM: 39%

## Cc1cnc(N[C@H]2CC[C@H](N)CC2)nc1-c1cnc2ccc(NCc3ccc(F)cc3)cn12 [Compound 32, (1r,4r)-N^1-(4-(6-((4-Fluorobenzyl)amino)imidazo[1,2-a]pyridin-3-yl)-5-methylpyrimidin-2-yl)cyclohexane-1,4-diamine]
[1]
  Ki: 0.094 µM
[2]
  Ki: 5.39 µM
[3]
  Ki: 0.63 µM
[4]
  Ki: > 10 µM
[5]
  GI50: 0.066 ± 0.014 µM
[6]
  remaining activity at 10 µM: 16%
[7]
  remaining activity at 10 µM: 36%

## N[C@H]1CC[C@H](Nc2ncc(F)c(-c3cnc4cc(-c5ccccc5)ccn34)n2)CC1 [Compound 44, (1r,4r)-N^1-(5-Fluoro-4-(7-phenylimidazo[1,2-a]pyridin-3-yl)pyrimidin-2-yl)cyclohexane-1,4-diamine]
[1]
  Ki: 0.007 µM
[2]
  remaining activity at 10 µM: 2%
[3]
  remaining activity at 10 µM: 0%
[4]
  remaining activity at 10 µM: 0%
[5]
  GI50: < 0.001 µM
[6]
  remaining activity at 10 µM: 2%
[7]
  remaining activity at 10 µM: 1%

## COc1ccc(-c2ccc3ncc(-c4nc(N[C@H]5CC[C@H](N)CC5)ncc4Cl)n3c2)cn1 [Compound 81, (1r,4r)-N^1-(5-Chloro-4-(6-(6-methoxypyridin-3-yl)imidazo[1,2-a]pyridin-3-yl)pyrimidin-2-yl)cyclohexane-1,4-diamine]
[1]
  Ki: 0.008 µM
[2]
  Ki: 0.21 µM
[3]
  Ki: 0.51 µM
[4]
  Ki: 2.01 µM
[5]
  GI50: 0.025 ± 0.011 µM
[6]
  Ki: 1.58 µM
[7]
  Ki: 1.01 µM

## Cc1cnc(N[C@H]2CC[C@H](N)CC2)nc1-c1cnc2ccc(NC(=O)c3ccc(F)cc3)cn12 [Compound 72, N-(3-(2-(((1r,4r)-4-Aminocyclohexyl)amino)-5-methylpyrimidin-4-yl)imidazo[1,2-a]pyridin-6-yl)-4-fluorobenzamide]
[1]
  Ki: 0.194 µM
[2]
  remaining activity at 10 µM: 57%
[3]
  remaining activity at 10 µM: 52%
[4]
  remaining activity at 10 µM: 69%
[5]
  GI50: 1.46 ± 0.476 µM
[6]
  remaining activity at 10 µM: 77%
[7]
  remaining activity at 10 µM: 85%

## Cc1cnc(N[C@H]2CC[C@H](N)CC2)nc1-c1cnc2ccc(Nc3cncnc3)cn12 [Compound 115, (1r,4r)-N^1-(5-Methyl-4-(6-(pyrimidin-5-ylamino)imidazo [1,2-a]pyridin-3-yl)pyrimidin-2-yl)cyclohexane-1,4-diamine]
[1]
  Ki: 0.006 µM
[2]
  Ki: 4 µM
[3]
  Ki: 0.14 µM
[4]
  Ki: 1.35 µM
[5]
  GI50: 0.552 ± 0.166 µM
[6]
  Ki: 1.24 µM
[7]
  Ki: 1.11 µM

## CC(=O)NC1CCC(Nc2ncc(C)c(-c3cnc4ccc(Nc5cncnc5)cn34)n2)CC1 (centres unmarked) [Compound 113, N-(4-((5-Methyl-4-(6-(pyrimidin-5-ylamino)imidazo [1,2-a]pyridin-3-yl)pyrimidin-2-yl)amino)cyclohexyl) acetamide]
[1]
  Ki: 1.01 µM
[2]
  Ki: 2.59 µM
[3]
  Ki: 0.45 µM
[4]
  Ki: 0.82 µM
[5]
  GI50: > 10 µM
[6]
  remaining activity at 10 µM: 28%
[7]
  remaining activity at 10 µM: 39%

## Fc1cnc(NC2CCN(CC3CC3)CC2)nc1-c1cnc2ccccn12 [Compound 22, N-(1-(Cyclopropylmethyl)piperidin-4-yl)-5-fluoro-4-(imidazo[1,2-a]pyridin-3-yl)pyrimidin-2-amine]
[1]
  Ki: 0.095 µM
[2]
  Ki: 0.437 µM
[3]
  Ki: 1.12 µM
[4]
  Ki: 1.06 µM
[5]
  GI50: 0.041 ± 0.012 µM
[6]
  remaining activity at 10 µM: 2%
[7]
  remaining activity at 10 µM: 42%

## COC(=O)CN[C@H]1CC[C@H](Nc2ncc(F)c(-c3cnc4ccccn34)n2)CC1 [Compound 15, Methyl ((1r,4r)-4-((5-fluoro-4-(imidazo[1,2-a]pyridin-3-yl)pyrimidin-2-yl)amino)cyclohexyl)glycinate]
[1]
  Ki: 0.014 µM
[2]
  Ki: 0.15 µM
[3]
  Ki: 0.027 µM
[4]
  Ki: 0.07 µM
[5]
  GI50: 0.05 ± 0.009 µM
[6]
  remaining activity at 10 µM: 0%
[7]
  remaining activity at 10 µM: 13%

## CS(=O)(=O)N[C@H]1CC[C@H](Nc2ncc(Cl)c(-c3cnc4ccc(Br)cn34)n2)CC1 [Compound 17, N-((1r,4r)-4-((4-(6-Bromoimidazo[1,2-a]pyridin-3-yl)-5-chloropyrimidin-2-yl)amino)cyclohexyl) methanesulfonamide]
[1]
  Ki: 0.062 µM
[2]
  Ki: 0.001 µM
[3]
  Ki: 0.0004 µM
[4]
  Ki: 0.004 µM
[5]
  GI50: < 0.001 µM
[6]
  remaining activity at 10 µM: 1%
[7]
  remaining activity at 10 µM: 26%

## Cc1cnc(NC2CCOCC2)nc1-c1cnc2ccc(Nc3cccnc3)cn12 [Compound 103, 3-(5-Methyl-2-((tetrahydro-2H-pyran-4-yl)amino)pyrimidin-4-yl)-N-(pyridin-3-yl)imidazo[1,2-a]pyridin-6-amine]
[1]
  Ki: 0.203 µM
[2]
  remaining activity at 10 µM: 40%
[3]
  remaining activity at 10 µM: 1%
[4]
  remaining activity at 10 µM: 4%
[5]
  GI50: > 10 µM
[6]
  remaining activity at 10 µM: 30%
[7]
  remaining activity at 10 µM: 45%

## Cc1cnc(N[C@H]2CC[C@@H](N)CC2)nc1-c1cnc2ccc(Nc3cncnc3)cn12 [Compound 93, (1s,4s)-N^1-(5-Methyl-4-(6-(pyrimidin-5-ylamino)imidazo [1,2-a]pyridin-3-yl)pyrimidin-2-yl)cyclohexane-1,4-diamine]
[1]
  Ki: 0.071 µM
[2]
  remaining activity at 10 µM: 49%
[3]
  remaining activity at 10 µM: 31%
[4]
  remaining activity at 10 µM: 35%
[5]
  GI50: 0.336 ± 0.082 µM
[6]
  remaining activity at 10 µM: 28%
[7]
  remaining activity at 10 µM: 69%

## N[C@H]1CC[C@H](Nc2ncc(Cl)c(-c3cnc4ccc(-c5cncnc5)cn34)n2)CC1 [Compound 38, (1r,4r)-N^1-(5-Chloro-4-(6-(pyrimidin-5-yl)imidazo[1,2-a]pyridin-3-yl)pyrimidin-2-yl)cyclohexane-1,4-diamine]
[1]
  Ki: 0.065 µM
[2]
  Ki: 0.58 µM
[3]
  Ki: 0.91 µM
[4]
  Ki: 2.56 µM
[5]
  GI50: 0.052 ± 0.011 µM
[6]
  remaining activity at 10 µM: 0%
[7]
  remaining activity at 10 µM: 80%

## Cc1cnc(N[C@H]2CC[C@H](N)CC2)nc1-c1cnc2ccc(-c3cncnc3)cn12 [Compound 39, (1r,4r)-N^1-(5-Methyl-4-(6-(pyrimidin-5-yl)imidazo[1,2-a]pyridin-3-yl)pyrimidin-2-yl)cyclohexane-1,4-diamine]
[1]
  Ki: 0.165 µM
[2]
  Ki: 5.6 µM
[3]
  Ki: 4.74 µM
[4]
  Ki: 7.36 µM
[5]
  GI50: 0.082 ± 0.02 µM
[6]
  remaining activity at 10 µM: 36%
[7]
  remaining activity at 10 µM: 100%

## N[C@H]1CC[C@H](Nc2ncc(Cl)c(-c3cnc4ccc(NCc5ccc(F)cc5)cn34)n2)CC1 [Compound 41, (1r,4r)-N^1-(5-Chloro-4-(6-((4-fluorobenzyl)amino)imidazo[1,2-a]pyridin-3-yl)pyrimidin-2-yl)cyclohexane-1,4-diamine]
[1]
  Ki: 0.045 µM
[2]
  Ki: 0.958 µM
[3]
  Ki: 0.059 µM
[4]
  Ki: 2.66 µM
[5]
  GI50: 0.013 ± 0.002 µM
[6]
  remaining activity at 10 µM: 40%
[7]
  remaining activity at 10 µM: 55%

## N[C@H]1CC[C@H](Nc2ncc(F)c(-c3cnc4cc(Nc5cccnc5)ccn34)n2)CC1 [Compound 46, (1r,4r)-N^1-(5-Fluoro-4-(7-(pyridin-3-ylamino)imidazo [1,2-a]pyridin-3-yl)pyrimidin-2-yl)cyclohexane-1,4-diamine]
[1]
  Ki: 0.004 µM
[2]
  remaining activity at 10 µM: 3%
[3]
  remaining activity at 10 µM: 0%
[4]
  remaining activity at 10 µM: 0%
[5]
  GI50: < 0.001 µM
[6]
  remaining activity at 10 µM: 0%
[7]
  remaining activity at 10 µM: 1%
